Measured values taken from patent publication US8685942B2, “Sophorolipid analog compositions” (priority 2010, dated 2014).
Values after ≈ are worked out from the molar mass of the structure shown. Read-outs that look alike come from different tables or passages of the source.

How the values were obtained:
Salmonella choleraesuis = conditions: cited from earlier work
Phytophthoracapsici = test: Antifungal MIC, 96 well microplate, spore suspension; assay type: cell-based; conditions: absence of visible growth after 7 days, diluted from 2.5 to 0.0024 mg/ml
Experimental: (§1) Sophorolipid samples were dissolved in 5% ethanol solution to a final concentration of 5 mg/mL and used as a stock solution. The stock solution (100 μl) was added into a 96 well microplate and serially diluted from 2.5 mg/ml to 0.0024 mg/ml using culture medium. After serial dilution, 80 μl of fresh culture medium and 20 μl of spore suspension were added to each well and the plates were incubated for 7 days. The minimum inhibitory concentration (MIC) was determined to measure antifungal activity of sophorolipid-derived compounds. MIC values for antifungal activity were determined by absence of visible growth in the micro wells containing sophorolipid after 7 days of incubation.
as §1, §1

A. solani = test: as above; assay type: cell-based
Experimental: as §1, §1, §1

Fusarimoxysporium = test: as above; assay type: cell-based; conditions: absence of visible growth after 7 days, diluted from 2.5 to 0.0024 mg/ml
Experimental: as §1, §1, §1

Eserichia coli = conditions: cited from earlier work
pathogens = test: Antifungal MIC screen, summary over the pathogen panel; assay type: cell-based; conditions: of the eight pathogens of Tables 2-4
Experimental: as §1, with “The hydrogenated lactonic sophorolipids have antifungal activity, which were confirmed by experiment and observations. Sophorolipid” for “Sophorolipid”, “incubation. Natural and lactonic SLs were active against four pathogens, whereas hydrogenated lactonic and acidic SLs active against three and two pathogens respectively.” for “incubation.”
as §1, with “The acidic sophorolipid esters have antifungal activity, which were confirmed by experiment and observations. Sophorolipid” for “Sophorolipid”
as §1, with “The acidic sophorolipid amide derivatives have antifungal activity, which were confirmed by experiment and observations. Sophorolipid” for “Sophorolipid”

Moraxella = conditions: cited from earlier work
Rhodoccocuserythropolis = conditions: cited from earlier work
Ralstoniaeutropha = conditions: cited from earlier work
A. alternate = test: Antifungal MIC, 96 well microplate, spore suspension; assay type: cell-based; conditions: 168 h
Experimental: as §1, §1, §1

Botrytis cinerea = test: as above; assay type: cell-based
Experimental: as §1, §1, §1

Alternariatomatophilia = test: as above; assay type: cell-based
Experimental: as §1, §1, §1

vaginal cell = conditions: cited from earlier work
Phytophthorainfestans = test: Antifungal MIC, 96 well microplate, spore suspension; assay type: cell-based; conditions: absence of visible growth after 7 days, diluted from 2.5 to 0.0024 mg/ml
Experimental: as §1, §1, §1

[1] = A. solani, absence of visible growth after 7 days, diluted from 2.5 to 0.0024 mg/ml
[2] = Alternariatomatophilia, absence of visible growth after 7 days, diluted from 2.5 to 0.0024 mg/ml

For `COC(=O)CCCCCCC/C=C\CCCCCCC(C)OC1OC(CO)C(O)C(O)C1OC1OC(CO)C(O)C(O)C1O` (centres unmarked) [SL-E-1, sophorolipid methyl ester], the MIC100 (Salmonella choleraesuis) is given as 1.67 mg/mL (≈ 2620 µM), the MIC (Phytophthoracapsici) is given as 1.25 mg/mL (≈ 1960 µM) and the MIC (A. solani; [1]) is given as 2.5 mg/mL (≈ 3930 µM). For the same molecule, the MIC (Fusarimoxysporium) was 2.5 mg/mL (≈ 3930 µM), the MIC100 (Eserichia coli) was 1.67 mg/mL (≈ 2620 µM) and the “number of pathogens active against” value (pathogens) was “three”. For the same molecule, the MIC100 (Moraxella) was 0.0617 mg/mL (≈ 96.9 µM), the MIC100 (Rhodoccocuserythropolis) was 5 mg/mL (≈ 7850 µM) and the MIC100 (Ralstoniaeutropha) was 5 mg/mL (≈ 7850 µM).
For `CC(CCCCCC/C=C\CCCCCCCC(=O)NCCN(C)C)OC1OC(CO)C(O)C(O)C1OC1OC(CO)C(O)C(O)C1O` (centres unmarked) [SL-AM-3, (Z)-17-((4,5-dihydroxy-6-(hydroxymethyl)-3-((3,4,5-trihydroxy-6-(hydroxymethyl)tetrahydro-2H-pyran-2-yl)oxy)tetrahydro-2H-pyran-2-yl)oxy)-N-(2-(dimethylamino)ethyl)-octadec-9-enamide], the MIC (A. alternate) was 1250 µg/mL (≈ 1800 µM), the MIC (Botrytis cinerea; 168 h) was 600 µg/mL (≈ 866 µM) and the MIC (A. solani; Alternaria solani, 168 h) was 0.15 mg/mL (≈ 216 µM). The MIC (Alternariatomatophilia; 168 h) was 300 µg/mL (≈ 433 µM) and the “number of pathogens active against” value (pathogens) was “four”.
For `CCCCOC(=O)CCCCCCC/C=C\CCCCCCC(C)OC1OC(COC(C)=O)C(O)C(O)C1OC1OC(COC(C)=O)C(O)C(O)C1O` (centres unmarked) [SL-E-8], the MIC (A. solani; [1]) was 1.25 mg/mL (≈ 1640 µM) and the “number of pathogens active against” value (pathogens) was “one”.
For `CCCCOC(=O)CCCCCCC/C=C\CCCCCCC(C)OC1OC(CO)C(O)C(O)C1OC1OC(COC(C)=O)C(O)C(O)C1O` (centres unmarked) [SL-E-6], the MIC (Phytophthoracapsici) was 0.6 mg/mL (≈ 832 µM) and the “number of pathogens active against” value (pathogens) was “one”.
With `CC(CCCCCC/C=C\CCCCCCCC(=O)NCC[N+](C)(C)C)OC1OC(CO)C(O)C(O)C1OC1OC(CO)C(O)C(O)C1O` (centres unmarked) [SL-AM-4, (Z)-2-(17-((4,5-dihydroxy-6-(hydroxymethyl)-3-((3,4,5-trihydroxy-6 (hydroxyl methyl)tetrahydro-2H-pyran-2-yl)oxy)tetrahydro-2H-pyran-2-yl)oxy)octadec-9-enamido)-N,N,N-trimethylethanaminium iodide] the MIC (A. alternate; A. alternate, absence of visible growth after 7 days, diluted from 2.5 to 0.0024 mg/ml, read-out: MIC) was 1250 µg/mL, the MIC (Botrytis cinerea; 168 h, absence of visible growth after 7 days, diluted from 2.5 to 0.0024 mg/ml, read-out: MIC) was 600 µg/mL and the MIC (A. solani; Alternaria solani, 168 h, A. solani, absence of visible growth after 7 days, diluted from 2.5 to 0.0024 mg/ml, read-out: MIC) was 0.6 mg/mL. For the same molecule, the MIC (Alternariatomatophilia; 168 h, Alternariatomatophilia, absence of visible growth after 7 days, diluted from 2.5 to 0.0024 mg/ml, read-out: MIC) was 150 µg/mL and the “number of pathogens active against” value (pathogens) was “four”.
For `CCCCCCOC(=O)CCCCCCC/C=C\CCCCCCC(C)OC1OC(CO)C(O)C(O)C1OC1OC(CO)C(O)C(O)C1O` (centres unmarked) [SL-E-9], the MIC100 (Salmonella choleraesuis) is given as 5 mg/mL (≈ 7070 µM), the MIC100 (Eserichia coli) is given as 1.67 mg/mL (≈ 2360 µM) and the MIC100 (Moraxella) is given as 1.67 mg/mL (≈ 2360 µM). For the same molecule, the MIC100 (Ralstoniaeutropha) was 5 mg/mL (≈ 7070 µM).
For `CCOC(=O)CCCCCCC/C=C\CCCCCCC(C)O[C@@H]1O[C@H](COC(C)=O)[C@@H](O)[C@H](O)[C@H]1O[C@@H]1O[C@H](COC(C)=O)[C@@H](O)[C@H](O)[C@H]1O` (some centres unmarked) [sophorolipid diacetate ethyl ester], the vaginal cell toxicity (vaginal cell) is listed as “induces sufficient vaginal cell toxicity to raise concerns”.
Work on `CC(CCCCCC/C=C\CCCCCCCC(=O)NCCO)OC1OC(CO)C(O)C(O)C1OC1OC(CO)C(O)C(O)C1O` (centres unmarked) [SL-AM-1] yielded an MIC (Botrytis cinerea; absence of visible growth after 7 days, diluted from 2.5 to 0.0024 mg/ml) of 2500 µg/mL (≈ 3750 µM) and an MIC (Alternariatomatophilia; [2]) of 2500 µg/mL (≈ 3750 µM).
`CCCCOC(=O)CCCCCCC/C=C\CCCCCCC(C)OC1OC(CO)C(O)C(O)C1OC1OC(CO)C(O)C(O)C1O` (centres unmarked) [SL-E-3] gave an MIC (A. solani; [1]) of 1.25 mg/mL (≈ 1840 µM), an MIC (Phytophthorainfestans) of 1.25 mg/mL (≈ 1840 µM) and an MIC (Alternariatomatophilia; [2]) of 150 µg/mL (≈ 221 µM). For the same molecule, the “number of pathogens active against” value (pathogens) was “three”.
In the case of `CCOC(=O)CCCCCCC/C=C\CCCCCCC(C)OC1OC(CO)C(O)C(O)C1OC1OC(COC(C)=O)C(O)C(O)C1O` (centres unmarked) [SL-E-4], the MIC100 (Salmonella choleraesuis) is listed as 5 mg/mL (≈ 7220 µM), the MIC (Phytophthoracapsici) is listed as 0.6 mg/mL (≈ 866 µM) and the MIC100 (Eserichia coli) is listed as 5 mg/mL (≈ 7220 µM). The “number of pathogens active against” value (pathogens) was “one”, the MIC100 (Moraxella) was 0.0205 mg/mL (≈ 29.6 µM) and the MIC100 (Rhodoccocuserythropolis) was 0.00686 mg/mL (≈ 9.9 µM). The MIC100 (Ralstoniaeutropha) was 5 mg/mL (≈ 7220 µM).
In the case of `CC(CCCCCC/C=C\CCCCCCCC(=O)O)OC1OC(CO)C(O)C(O)C1OC1OC(CO)C(O)C(O)C1O` (centres unmarked) [SL-A-4], the MIC100 (Salmonella choleraesuis) is given as 5 mg/mL (≈ 8030 µM), the MIC100 (Eserichia coli) is given as 5 mg/mL (≈ 8030 µM) and the MIC100 (Moraxella) is given as 5 mg/mL (≈ 8030 µM). The MIC100 (Rhodoccocuserythropolis) was 0.56 mg/mL (≈ 899 µM) and the MIC100 (Ralstoniaeutropha) was 5 mg/mL (≈ 8030 µM).
For `CCOC(=O)CCCCCCC/C=C\CCCCCCC(C)OC1OC(COC(C)=O)C(O)C(O)C1OC1OC(COC(C)=O)C(O)C(O)C1O` (centres unmarked) [SL-E-5], the MIC100 (Salmonella choleraesuis) is listed as 5 mg/mL (≈ 6800 µM), the MIC (Phytophthoracapsici) is listed as 0.6 mg/mL (≈ 816 µM) and the MIC100 (Eserichia coli) is listed as 5 mg/mL (≈ 6800 µM). For the same molecule, the “number of pathogens active against” value (pathogens) was “one”, the MIC100 (Moraxella) was 0.0617 mg/mL (≈ 84 µM) and the MIC100 (Rhodoccocuserythropolis) was 5 mg/mL (≈ 6800 µM). The MIC100 (Ralstoniaeutropha) was 5 mg/mL (≈ 6800 µM).
